No end group written: not given here.
Tests used:
[1] = cited from earlier work
[2] = test system: mouse brain (blood-brain barrier); details: mouse, in vivo
Excerpt: Briefly, male C57BL/6J mice (n=43, 6-8 weeks old, 20-25 g, Jackson Laboratory) were anesthetized with 2% isoflurane. The common carotid artery (CCA) bifurcation was exposed and the occipital artery branching off from the external carotid artery (ECA) was coagulated. The ECA and the pterygopalatine artery (PPA) were temporarily ligated with 4-0 silk sutures. A temporary ligature using a 4-0 suture was placed on the carotid bifurcation and the proximal CCA was permanently ligated. A microcatheter (PE-8-100, SAI Infusion Technologies) was flushed with 2% heparin (1,000 U mL^−1, heparin sodium, Upjohn), inserted into the CCA via a small arteriotomy, and advanced into the internal carotid artery (ICA).
For each animal, 150 μL of solution was infused at a rate of 150 μL minute^−1. […] The brains were harvested immediately after Evans Blue injection, sectioned in brain slicer matrix (Zivic Instruments) to produce 1 mm slabs.
Animal anesthesia was maintained at 1.5-2% during the MRI scan. Mice were placed on a water-heated animal bed equipped with temperature and respiratory control. Respiration was monitored and maintained at 30-60 minutes^−1. All MRI experiments were performed on a Bruker 11.7T MRI scanner. Baseline T2 (TR/TE=2,500/30 ms), susceptibility-weighted imaging (SWI) (TR/TE=378/8 ms), T1 (TR/TE 350/6.7 ms)-weighted, dynamic gradient echo echo-planar imaging (GE-EPI, TR/TE 1250/9.7 ms, field of view (FOV)=14×14 mm, matrix=128×128, acquisition time=60 s and 24 repetitions) and dynamic T1 imaging (TR/TE 2000/3. 5ms, field of view=14×14 mm, acquisition time=8 seconds and 20 repetitions) images of the brain were acquired. The microcatheter was connected to a syringe mounted on an MRI compatible programmable syringe pump (PHD 2000, Harvard Apparatus Inc.). Gadolinium (Gd; Prohance) dissolved in saline at 1:50 was infused intra-arterially at the rate of 150 μL minute^−1 under dynamic GE-EPI MRI for visualization of perfusion territory. […] To quantify BBB status, T1 intensities in cortex, hippocampus and thalamus/hypothalamus were compared between ipsilateral and contralateral hemispheres. T1 hyperintensity was corrected for possible asymmetry using pre-contrast T1 images and normalized as the ratio of ipsilateral to contralateral intensity. Additionally, the area of BBBO (mm^2) was calculated by conversion of T1 images to binary using the Auto Threshold function (plugin v1.17; Maximum Entropy method) [Kapur, J. N., P. K. Sahoo, and A. K. C. Wong, Computer Vision, Graphics, and Image Processing, 1985, 29(3): p. 273-285] in ImageJ. T2-weighted and SWI images were acquired at the same timepoints for detection of brain damage and microhemorrhage. Subsequently, animals were sacrificed for further histological assessment.
To determine the area and region of perfusion territory, we first calculated the contrast enhancement maps at the time where contrast enhancement was at its maximum. As Gd causes negative contrast under T2 imaging, we calculated the contrast enhancement as (SIpre-SIpost)/SIpre, where SI is the signal intensity of an MR image. Histogram was plotted for all pixels in the brain region in a contrast enhancement map and further fitted into two Gaussian distributions, assuming there were two dominant populations for non-contrast enhanced and contrast-enhanced pixels, respectively. The cutoff value to separate the two populations was then determined. The fraction of contrast enhanced areas was calculated by the ratio of the number of pixels, whose values are larger than the cutoff value, to the total number of pixels in the brain. A similar method was used to determine the BBBO territory.

blood-brain barrier = details: cited from earlier work
[3] = test system: tissue-engineered dhBMECs microvessels; assay: BBB opening in tissue-engineered BBB microvessels (500 kDa dextran leakage); assay type: cell-based, human
Procedure: Three-dimensional blood-brain barrier microvessels were fabricated as previously reported (FIGS. 10A and 10B) [Linville, R. M., et al., Biomaterials, 2019. 190-191: p. 24-37] 150 μm diameter and 1 cm long channels were patterned in 7 mg mL^−1 type I collagen (Corning) using nitinol wire (Malin Co.) housed within polydimethylsiloxane (PDMS; Dow Corning). Channels were cross-linked by incubation in 20 mM genipin (Wako Biosciences) for 2 hours to increase cell adhesion. 2dhBMECs were suspended in BBB induction medium at a concentration of 5×10^6 cells mL^−1 and seeded into channels. Microvessels were perfused using BBB induction medium for 24 hours and then switched to BBB maintenance medium. During cell seeding and the first day of perfusion, 10 μM ROCK inhibitor Y27632 (ATCC) was supplemented to increase adhesion. An average shear stress of ˜2 dyn cm^−2 was maintained with a reservoir height difference (Δh) of 3 cm, corresponding to a volumetric flow rate of ˜250 μL h^−1 (FIG. 11D). This shear stress was estimated from the Poiseuille equation: τ=μQ)/2πd3 where μ is the media dynamic viscosity, Q is the volumetric flow rate, and d is the microvessel diameter.
Live-cell imaging was conducted to study dynamic changes in in vitro BBB permeability and microvessel structure. Microvessels were imaged using a 10×objective equipped on an inverted microscope (Nikon Eclipse TiE) maintained at 37° C. and 5% CO2 (FIG. S2C). Epifluorescence illumination was provided by an X-Cite 120LEDBoost (Excelitas Technologies). Phase contrast and fluorescence images were acquired every two minutes with the focal plane set to the microvessel midplane. The entire image collected consists of ten adjacent imaging frames. […] A dextran solute panel comprised of 200 μM Cascade Blue-conjugated 3 kDa dextran (Cat. No. D7132. Thermo Fisher Scientific), 16 μM Alexa Fluor647-conjugated 10 kDa dextran (Cat. No. D22914, Thermo Fisher Scientific), and 1.2 μM fluorescein-conjugated 500 kDa dextran (Cat. No. D7136, Thermo Fisher Scientific) was prepared in BBB maintenance medium. Fluorophores were independently excited and the respective emissions were collected using: Nikon UV-2E/C for 3 kDa dextran (50 ms exposure), Chroma 41008 for 10 kDa dextran (20 ms exposure), and Nikon B-2E/C for 500 kDa dextran (50 ms exposure).
Image processing was performed using ImageJ (NIH) to quantify BBB opening (FIGS. 11A-11D). First, images were cropped to a standard size of 6 mm×0.6 mm. To determine the spatial heterogeneity of BBB permeability, microvessels were sectioned into 10 regions of interest (ROIs), each a 0.6 mm×0.6 mm square (FIG. 11A). For each ROI, the integrated pixel density was plotted over time (FIG. 11A). The permeability (cm s^−1) was calculated using P=(r/2)(1/ΔI)(dI/dt), where r is the vessel radius, ΔI is the increase in fluorescence intensity upon perfusion of the fluorophore, and (dI/dt) is the rate of increase in fluorescence intensity as solute exits into the gel. […] To visually display permeability dynamics, heatmaps were generated from 90 instantaneous permeability values across the 10 ROIs (x-axis) and nine 10-minute periods (y-axis). […] 28(1): p. 41-51 in ImageJ (FIG. 11B). Under baseline conditions, thresholding results in the lumen designated as white (1) and extracellular matrix (ECM) as black (0). […] From binarized images, individual focal leaks were manually counted over time. Leaks emerging from the sides of the image frame were not counted. To quantify the duration of a BBB opening effect, we identified the time at which the last focal leak appeared and termed the focal leak reversibility time constant (τfocal leaks).

[4] = 25, 50, and 100 μM·minute doses

OC[C@@H](O)[C@@H](O)[C@H](O)[C@H](O)CO [mannitol]
solubility limit [1]: around 1.4 M | extent of BBBO compared with 3 μM·minute melittin [2]: similar | concentration above which BBBO is induced (blood-brain barrier): > 1.1 M

GIGAVLKVLTTGLPALISWIKRKRQQ-NH2 [melittin-CONH2]
slope of focal leak reversibility versus dose ([3]; compared across four variants): highest slope

RVGALKQTAIPVKSLIWGRQLIGLKT-NH2 [Mel-Scramble, reference compound]
BBBO [3, 4]: did not induce BBBO | change in the permeability of 500 kDa dextran following perfusion [3, 4]: no change | focal leaks during or 24 hours after perfusion [3, 4]: no focal leaks were observed
